Results reported in ChEMBL document CHEMBL4311972, “Discovery of a benzothiophene-flavonol halting miltefosine and antimonial drug resistance in Leishmania parasites through the application of medicinal chemistry, screening and genomics” (Eur J Med Chem, 2019).
Several values for one entry are separate records, joined by “and”; a condition that tells them apart may be missing. Equal values may be shown once. Activity calls are given as the source filed them. The calls are words filed in the database; no cut-off is given here.

Assays:
[1] = Toxicity in Syrian hamster infected with Leishmania infantum BCN150 promastigotes assessed as effect on ALT level at 40 mg/kg/day, po for 10 days formulated with 8% v/v DMSO measured after the last treatment; type: organism-based, Mesocricetus auratus; conditions: in vivo, 240 h
[2] = AUC (total) in BALB/c mouse at 1 mg/kg, iv measured upto 72 hrs by snapshot method; type: ADME, organism-based; set-up: dose 1 mg/kg, time < 72 hr, route intravenous; conditions: in vivo
[3] = tested on: Leishmania donovani; experiment: Antileishmanial activity against antimony sensitive Leishmania donovani BPK091 promastigotes infected in C57BL/6 mouse bone marrow-derived macrophages assessed as reduction in parasite load at 5 uM treated with compound at 24 hrs post-infection measured after 72 hrs post infection by q-PCR analysis relative to control; type: functional
[4] = Stability of the compound in phosphate buffer assessed as compound lifetime at 450 nm at 5 uM measured at pH 8 by fluorescence emission spectrum analysis; type: physicochemical; conditions: pH 8, 0.45 µM
[5] = Toxicity in Syrian hamster infected with Leishmania infantum BCN150 promastigotes assessed as adverse effects at 20 mg/kg/every 12 hrs, po for 10 days formulated with 8% v/v DMSO measured daily; type: organism-based, Mesocricetus auratus; conditions: in vivo
[6] = Chemical stability of compound in PBS at 20 uM at pH 8 exposed to 2-mins nitrogen bubbling followed by supplementation with human serum albumin measured for 6 hrs by UV-vis spectrophotometry analysis; type: physicochemical
[7] = biological target: T1, Albumin (Bos taurus, UniProt P02769); experiment: Binding affinity to bovine serum albumin by fluorescence based assay; type: ADME
T1 sequence (P02769 whole entry): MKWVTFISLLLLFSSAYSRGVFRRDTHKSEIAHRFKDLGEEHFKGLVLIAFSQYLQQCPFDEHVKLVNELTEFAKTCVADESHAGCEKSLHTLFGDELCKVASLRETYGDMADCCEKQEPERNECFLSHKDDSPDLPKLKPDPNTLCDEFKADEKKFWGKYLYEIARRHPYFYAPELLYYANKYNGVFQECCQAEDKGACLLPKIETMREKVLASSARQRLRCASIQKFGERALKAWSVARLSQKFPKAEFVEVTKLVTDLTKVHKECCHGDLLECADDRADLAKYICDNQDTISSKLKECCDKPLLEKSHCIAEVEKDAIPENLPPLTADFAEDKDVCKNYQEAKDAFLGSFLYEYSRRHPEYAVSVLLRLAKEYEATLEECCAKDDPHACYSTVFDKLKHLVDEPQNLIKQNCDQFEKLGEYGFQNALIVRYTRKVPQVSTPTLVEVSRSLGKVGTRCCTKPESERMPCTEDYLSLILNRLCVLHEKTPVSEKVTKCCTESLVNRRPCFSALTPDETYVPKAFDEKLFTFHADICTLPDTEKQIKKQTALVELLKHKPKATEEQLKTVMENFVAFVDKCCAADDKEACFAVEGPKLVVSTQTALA

[8] = Toxicity in Syrian hamster infected with Leishmania infantum BCN150 promastigotes assessed as effect on plasma creatinine level at 40 mg/kg/day, po for 10 days formulated with 30 to 50% v/v cyclodextrin measured after the last treatment; type: organism-based, Mesocricetus auratus; conditions: in vivo, 240 h
[9] = Toxicity in Syrian hamster infected with Leishmania infantum BCN150 promastigotes assessed as spleen weight at 40 mg/kg/day, po for 10 days formulated with 30% v/v cyclodextrin (reference value: 0.183 +/- 0.04 g); type: organism-based, Mesocricetus auratus; conditions: in vivo, 240 h
[10] = Toxicity in Syrian hamster infected with Leishmania infantum BCN150 promastigotes assessed as liver weight at 40 mg/kg/day, po for 10 days formulated with 30% v/v cyclodextrin (reference value: 5.102 +/- 0.729 g); type: organism-based, Mesocricetus auratus; conditions: in vivo, 240 h
[11] = Toxicity in Syrian hamster infected with Leishmania infantum BCN150 promastigotes assessed as liver weight at 40 mg/kg/day, po for 10 days formulated with 50% v/v cyclodextrin (reference value: 5.892 +/- 0.446 g); type: organism-based, Mesocricetus auratus; conditions: in vivo, 240 h
[12] = biological target: T1, Albumin; experiment: Binding affinity to bovine serum albumin in phosphate buffer assessed as increase in emission intensity at 530-550 nm at 5 uM measured at pH 8 at albumin concentration of 12 uM by fluorescence emission spectrum analysis; type: ADME; conditions: cattle, isolated protein, pH 8, 5 µM
[13] = Stability of the compound in phosphate buffer assessed as compound abundance at 450 nm at 5 uM measured at pH 8 by fluorescence emission spectrum analysis; type: physicochemical; conditions: read-out: Stability
[14] = tested on: Leishmania infantum; experiment: Antileishmanial activity against Leishmania infantum amastigotes infected in Syrian hamster assessed as reduction in parasite load at 40 mg/kg/day, po for 10 days formulated with 50% v/v cyclodextrin relative to control; type: functional; conditions: 240 h
[15] = tested on: Leishmania donovani; experiment: Antileishmanial activity against Leishmania donovani 1SR promastigotes assessed as parasite growth at IC50 concentration incubated with compound for 3 days under selective pressure and selection cycle repeated 10 times for total of 33 days and measured at 3 to 33 days of selection relative to control; type: functional
[16] = tested on: Leishmania infantum; experiment: Antileishmanial activity against Leishmania infantum amastigotes infected in Syrian hamster assessed as parasite load within spleen at 40 mg/kg/day, po for 10 days formulated with 50% v/v cyclodextrin (reference value: 8508698.676 +/- 2835609.487/g); type: functional
[17] = Toxicity in Syrian hamster infected with Leishmania infantum BCN150 promastigotes assessed as effect on ALT level at 40 mg/kg/day, po for 10 days formulated with 30 to 50% v/v cyclodextrin measured after the last treatment; type: organism-based, Mesocricetus auratus; conditions: in vivo, 240 h
[18] = tested on: Leishmania donovani; experiment: Antileishmanial activity against Leishmania donovani BPK091 promastigotes transfected with Leishmania donovani BPK190 genomic cosmid DNA assessed as decrease in parasite growth at IC75 concentration incubated for 3 days under selective pressure and selection cycle repeated for 25 passages and measured at 43 to 78 days of selection; type: functional, organism-based
[19] = Binding affinity to pepsin in porcine gastric mucosa in phosphate buffer assessed as compound lifetime at 530 nm at 5 uM measured at pH 8 by fluorescence emission spectrum analysis; type: ADME, Sus scrofa; conditions: pig
[20] = biological target: Albumin (Homo sapiens, UniProt P02768); experiment: Binding affinity to human serum albumin by fluorescence based assay; type: ADME
Chain of Albumin (Homo sapiens, UniProt P02768) (P02768 whole entry): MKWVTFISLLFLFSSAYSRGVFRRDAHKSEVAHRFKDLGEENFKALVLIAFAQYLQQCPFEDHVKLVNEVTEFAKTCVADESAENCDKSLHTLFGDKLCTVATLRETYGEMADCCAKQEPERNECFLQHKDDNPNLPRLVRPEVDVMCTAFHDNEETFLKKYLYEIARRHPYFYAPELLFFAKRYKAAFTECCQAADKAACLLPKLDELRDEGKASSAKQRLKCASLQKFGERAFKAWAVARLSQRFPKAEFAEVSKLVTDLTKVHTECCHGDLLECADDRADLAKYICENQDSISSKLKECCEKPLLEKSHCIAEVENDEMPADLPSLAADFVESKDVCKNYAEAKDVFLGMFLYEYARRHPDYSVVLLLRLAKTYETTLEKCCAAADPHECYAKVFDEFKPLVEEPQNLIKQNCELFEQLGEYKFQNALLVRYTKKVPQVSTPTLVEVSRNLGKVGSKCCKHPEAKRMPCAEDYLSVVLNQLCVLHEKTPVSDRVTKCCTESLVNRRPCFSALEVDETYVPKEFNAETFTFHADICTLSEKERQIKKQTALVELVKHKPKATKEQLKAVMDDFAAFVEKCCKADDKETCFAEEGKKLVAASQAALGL

[21] = Binding affinity to pepsin in porcine gastric mucosa in phosphate buffer assessed as increase in emission intensity at 530 nm at 5 uM measured at pH 8 by fluorescence emission spectrum analysis; type: ADME, Sus scrofa; conditions: pig
[22] = Cytotoxicity against human THP1 cells by MTT assay; type: cell-based, THP-1
[23] = Selectivity index, ratio of CC50 for human THP1 cells to EC50 for Trypanosoma brucei bloodstream form; type: toxicity; conditions: read-out: Ratio CC50/EC50
[24] = Toxicity in Syrian hamster infected with Leishmania infantum BCN150 promastigotes assessed as effect on AST level at 40 mg/kg/day, po for 10 days formulated with 30 to 50% v/v cyclodextrin measured after the last treatment; type: organism-based, Mesocricetus auratus; conditions: in vivo, 240 h
[25] = Chemical stability of compound in PBS assessed as decrease in absorbance at 20 uM at pH 8 measured after 2 mins nitrogen bubbling by UV-vis spectrophotometry analysis; type: physicochemical; conditions: read-out: Drug degradation
[26] = Toxicity in Syrian hamster infected with Leishmania infantum BCN150 promastigotes assessed as adverse effects at 20 mg/kg/every 12 hrs, po for 10 days formulated with 30% v/v cyclodextrin measured daily; type: organism-based, Mesocricetus auratus; conditions: in vivo
[27] = tested on: Leishmania infantum; experiment: Antileishmanial activity against Leishmania infantum amastigotes infected in Syrian hamster assessed as parasite load within liver at 40 mg/kg/day, po for 10 days formulated with 30% v/v cyclodextrin (reference value: 4333333.333 +/- 3444802.849 /g); type: functional
[28] = tested on: Leishmania infantum; experiment: Antileishmanial activity against Leishmania infantum amastigotes infected in Syrian hamster assessed as parasite load within liver at 20 mg/kg/day, po for 10 days (reference value: 5333333.333 +/- 3011090.611/g); type: functional
[29] = tested on: Leishmania infantum; experiment: Anti-leishmanial activity against Leishmania infantum BCN150 promastigotes infected in Syrian hamster assessed as decrease in anti-leishmanial IgG level at 20 mg/kg/day, po for 10 days by ELISA; type: functional, organism-based
[30] = tested on: Leishmania infantum; experiment: Antileishmanial activity against Leishmania infantum amastigotes infected in Syrian hamster assessed as reduction in parasite load in liver at 20 mg/kg/day, po for 10 days relative to control; type: functional; conditions: 240 h
[31] = Toxicity in Syrian hamster infected with Leishmania infantum BCN150 promastigotes assessed as distress effect at 20 mg/kg/day, po for 10 days measured daily; type: organism-based, Mesocricetus auratus; conditions: in vivo, 240 h
[32] = Toxicity in Syrian hamster infected with Leishmania infantum BCN150 promastigotes assessed as liver weight at 20 mg/kg/day, po for 10 days (reference value: 5.874 +/- 0.414 g); type: organism-based, Mesocricetus auratus; conditions: in vivo, 240 h
[33] = Toxicity in Syrian hamster infected with Leishmania infantum BCN150 promastigotes assessed as effect on plasma urea level at 20 mg/kg/day, po for 10 days measured after the last treatment; type: organism-based, Mesocricetus auratus; conditions: in vivo, 240 h
[34] = Toxicity in Syrian hamster infected with Leishmania infantum BCN150 promastigotes assessed as effect on alkaline phosphatase level at 20 mg/kg/day, po for 10 days measured after the last treatment; type: organism-based, Mesocricetus auratus; conditions: in vivo, 240 h

For COc1ccc2oc(-c3csc4ccccc34)c(O)c(=O)c2c1, the Activity [1] was “Non-Toxic”, the AUC at 72 h [2] was 16.3 µM·h and 5280 ng·h/mL and the inhibition at 5 µM [3] was 36%. The Time [4] was 0.32 nanoseconds, the Activity [5] was “Non-Toxic” and the Stability [6] was “Stable”. The Kd [7] was greater than 12 µM, the Activity [8] was “Non-Toxic” and the Activity [9] was 0.719 g. For the same molecule, the Activity [10] was 5.448 g, the Activity [11] was 5.522 g and the Activity [12] was 50%. It also gave a remaining at 5 µM [13] of 90 to 95%, an inhibition in vivo at 40 mg/kg/day [14] of 35.8% and an Activity [15] of less than 50%. For the same molecule, the Activity [16] was 5465832.19 g⁻¹, the Activity [17] was “Non-Toxic” and the inhibition [18] was “Active”. For the same molecule, the Time [19] was 5.5 nanoseconds, the Kd [20] was less than 10 µM and the Activity [21] was “Active”. The CC50 [22] was 25 to 50 µM, the selectivity ratio [23] was 33 and the Activity [24] was “Non-Toxic”. The degraded at 2 min, 20 µM [25] was greater than 90%, the Activity [26] was “Non-Toxic” and the Activity [27] was 3428571.429 g⁻¹.

With CCCCCCCCCCCCCCCCOP(=O)([O-])OCC[N+](C)(C)C [MILTEFOSINE] the Activity [28] was 1000000 g⁻¹, the inhibition [29] was “Active” and the inhibition in vivo at 20 mg/kg/day [30] was 81.2%. For the same molecule, the Activity [31] was “Toxic”, the Activity [32] was 5.996 g and the Activity [33] was “Non-Toxic”. The Activity [34] was “Non-Toxic”.
